From article PMC7942396, “Drug Repurposing Screen for Compounds Inhibiting the Cytopathic Effect of SARS-CoV-2” (Frontiers in Pharmacology, 2021)
pEC50: −log10 of the molar value. Like-named read-outs stand apart in the source and are kept apart here.

Experiments:
[1] = test system: SARS-CoV-2 (USA_WA1/2020); assay: microbe, parasite or virus in culture; type: cell-based; details: for pEC50: read-out: CPE EC50
Vero E6 cells = Vero E6 cells without virus; for CC50: read-out: Cytotox CC50
[2] = SARS-CoV-2 CPE assay, Vero E6 cells, confirmed anti-SARS-CoV-2 compounds
[3] = SARS-CoV-2 CPE assay, Vero E6 cells, efficacy
[4] = […], DMSO 0%, no-virus control 100%, hit confirmation
[5] = SARS-CoV-2 CPE assay, Vero E6 cells

**Q.** How did the pEC50 [1, 2] turn out when CC(C)CCC[C@@H](C)[C@H]1CC[C@H]2[C@@H]3CC=C4C[C@@H](OC(=O)NCCN(C)C)CC[C@]4(C)[C@H]3CC[C@]12C.Cl was run?
**A.** 4.95

**Q.** And the “CPE % Efficacy” value [1, 3]?
**A.** 40.5%

**Q.** And the “% Cytotox” value (Vero E6 cells; cytotoxicity counter-assay)?
**A.** 37.0%

**Q.** And the CC50 (Vero E6 cells; cytotoxicity counter-assay)?
**A.** 10 µM

**Q.** How did the pEC50 [1, 2] turn out when COc1ccc(S(=O)(=O)N(CCO)c2ccccc2CN(C)C/C=C/c2ccc(Cl)cc2)cc1 [KN-93] was run?
**A.** 4.95

**Q.** And the “CPE % Efficacy” value [1, 3]?
**A.** 69.0%

**Q.** What about the “% Cytotox” value (Vero E6 cells; cytotoxicity counter-assay) of the same compound?
**A.** 34.4%

**Q.** And the CC50 (Vero E6 cells; cytotoxicity counter-assay)?
**A.** 11.2 µM

**Q.** What does the source list for (-)-Indolactam V?
**A.** pEC50 [1, 2]: 5.81; CPE % Efficacy [1, 3]: 74.4%; % Cytotox (Vero E6 cells; cytotoxicity counter-assay): 20.4%; CC50 (Vero E6 cells; cytotoxicity counter-assay): 1.24 µM

**Q.** With COc1ccc2sc(NC(c3ccc(OC(F)F)cc3)c3ccc4cccnc4c3O)nc2c1 (stereo not shown) [KIN1408] as the compound, how does the pEC50 [1, 2] read?
**A.** 6.05

**Q.** And the “CPE % Efficacy” value [1, 3]?
**A.** 69.8%

**Q.** And the “% Cytotox” value (Vero E6 cells; cytotoxicity counter-assay)?
**A.** 77.9%

**Q.** What about the CC50 (Vero E6 cells; cytotoxicity counter-assay) of the same compound?
**A.** 0.71 µM

**Q.** How did the pEC50 [1, 2] turn out when Cc1cccc2c1CC[C@H](CN1CCC(c3c(Cl)cccc3Cl)CC1)C[C@@H]2O.Cl [SB 612111 hydrochloride] was run?
**A.** 5.05

**Q.** And the “CPE % Efficacy” value [1, 3]?
**A.** 53.8%

**Q.** And the “% Cytotox” value (Vero E6 cells; cytotoxicity counter-assay)?
**A.** 59.7%

**Q.** What about the CC50 (Vero E6 cells; cytotoxicity counter-assay) of the same compound?
**A.** 12.6 µM

**Q.** What does the source list for CC(C)(O)CNc1ncc(-c2ccnc(Nc3ccncc3)n2)c(CC2CC2)n1 [VPS34 Inhibitor 1, reference compound]?
**A.** CPE % Efficacy [1, 4]: 98.3%; pEC50 [1]: 5.85; % Cytotox (Vero E6 cells; 72 h): <30%

**Q.** How did the pEC50 [1, 2] turn out when OC(CNc1ccccc1)Cn1c2ccc(Br)cc2c2cc(Br)ccc21 (stereo not shown) [P7C3] was run?
**A.** 5.40

**Q.** What about the “CPE % Efficacy” value [1, 3] of the same compound?
**A.** 65.2%

**Q.** And the “% Cytotox” value (Vero E6 cells; cytotoxicity counter-assay)?
**A.** 54.5%

**Q.** And the CC50 (Vero E6 cells; cytotoxicity counter-assay)?
**A.** 11.2 µM

**Q.** How did the pEC50 [1, 2] turn out when C[C@@H]1O[C@@H](O[C@H]2[C@H](OC(=O)[C@]34CCC(C)(C)C[C@H]3C3=CCC5[C@@]6(C)CC[C@H](O[C@@H]7O[C@H](CO[C@@H]8OC[C@H](O)[C@H](O)[C@H]8O)[C@@H](O)[C@H](O)[C@H]7O)C(C)(C)C6CC[C@@]5(C)[C@]3(C)C[C@H]4O)OC[C@@H](O)[C@@H]2O)[C@H](O)[C@H](O[C@@H]2OC[C@](O)(CO)[C@H]2O)[C@H]1O[C@@H]1OC[C@H](O)[C@H](O[C@@H]2OC[C@@H](O)[C@H](O)[C@H]2O)[C@H]1O (stereo partly shown) [NCGC00385743] was run?
**A.** 6.02

**Q.** And the “CPE % Efficacy” value [1, 3]?
**A.** 59.8%

**Q.** And the “% Cytotox” value (Vero E6 cells; cytotoxicity counter-assay)?
**A.** 67.2%

**Q.** What about the CC50 (Vero E6 cells; cytotoxicity counter-assay) of the same compound?
**A.** 2.14 µM

**Q.** How did the pEC50 [1, 2] turn out when CCCCNc1ncc2c(-c3ccc(F)cc3)nn(CC3CCC(N)CC3)c2n1 (stereo not shown) [UNC-569] was run?
**A.** 5.01

**Q.** And the “CPE % Efficacy” value [1, 3]?
**A.** 46.0%

**Q.** And the “% Cytotox” value (Vero E6 cells; cytotoxicity counter-assay)?
**A.** 34.2%

**Q.** What about the CC50 (Vero E6 cells; cytotoxicity counter-assay) of the same compound?
**A.** 4.92 µM

**Q.** O=C(N[C@@H](c1ccccc1)[C@@H]1CCCCN1)c1cccc(C(F)(F)F)c1Cl [SSR-504734] was tested. Which “CPE % Efficacy” value [1, 5] did it give?
**A.** 31.7%

**Q.** And the pEC50 [1, 5]?
**A.** 4.85

**Q.** What about the “% Cytotox” value (Vero E6 cells; cytotoxicity counter-assay) of the same compound?
**A.** 15.7%

**Q.** What about the CC50 (Vero E6 cells; cytotoxicity counter-assay) of the same compound?
**A.** 7.94 µM

**Q.** With CN1CCN(S(=O)(=O)c2ccc(-c3cnc(N)c(C(=O)Nc4cccnc4)n3)cc2)CC1 [AZD-2858] as the compound, how does the “CPE % Efficacy” value [1, 3] read?
**A.** 80.0%

**Q.** And the “% Cytotox” value (Vero E6 cells; cytotoxicity counter-assay)?
**A.** 41.0%

**Q.** What about the CC50 (Vero E6 cells; cytotoxicity counter-assay) of the same compound?
**A.** 12.6 µM

**Q.** With N#Cc1c(C2CCNCC2)cc(-c2c(O)cccc2OCC2CC2)nc1N [IKK-2 inhibitor VIII, reference compound] as the compound, how does the CPE % Efficacy [1, 4] read?
**A.** 91.7%

**Q.** What about the pEC50 [1] of the same compound?
**A.** 5.15

**Q.** What about the “% Cytotox” value (Vero E6 cells; 72 h) of the same compound?
**A.** <30%

**Q.** CCCCCCCCCCCCCCCc1cccc(O)c1C(=O)O [Anacardic Acid] was tested. Which pEC50 [1, 2] did it give?
**A.** 5.40

**Q.** And the “CPE % Efficacy” value [1, 3]?
**A.** 89.6%

**Q.** And the “% Cytotox” value (Vero E6 cells; cytotoxicity counter-assay)?
**A.** 72.9%

**Q.** How did the pEC50 [1, 2] turn out when Cn1nnnc1Sc1ncnc2scc(-c3cccc(S(C)(=O)=O)c3)c12 [NCGC00182390] was run?
**A.** 5.35

**Q.** And the “CPE % Efficacy” value [1, 3]?
**A.** 57.8%

**Q.** What about the “% Cytotox” value (Vero E6 cells; cytotoxicity counter-assay) of the same compound?
**A.** 63.9%

**Q.** And the CC50 (Vero E6 cells; cytotoxicity counter-assay)?
**A.** 8.91 µM

**Q.** Which CPE % Efficacy [1, 4] does the source give for CN1CN(c2ccccc2)C2(CCN(CCCC(=O)c3ccc(F)cc3)CC2)C1=O.Cl [N-Methylspiperone hydrochloride, reference compound] here?
**A.** 80.0%

**Q.** What about the pEC50 [1] of the same compound?
**A.** 5.35

**Q.** And the “% Cytotox” value (Vero E6 cells; 72 h)?
**A.** <30%

**Q.** O=C(O)c1ccc(CCCc2ccc(OCCc3ccc(F)cc3)cc2)o1 [D-942] was tested. Which pEC50 [1, 2] did it give?
**A.** 6.85

**Q.** What about the “CPE % Efficacy” value [1, 3] of the same compound?
**A.** 120.3%

**Q.** And the “% Cytotox” value (Vero E6 cells; cytotoxicity counter-assay)?
**A.** 53.7%

**Q.** What about the CC50 (Vero E6 cells; cytotoxicity counter-assay) of the same compound?
**A.** 11.2 µM

**Q.** For Cc1nnc(-c2ccc(-c3ccc(C(=O)Nc4ccc(O)c(N5CCN(C)CC5)c4)cc3)c(C)c2)o1 [GMC 2-113, reference compound], which CPE % Efficacy [1, 4] is on record?
**A.** 129.7%

**Q.** And the pEC50 [1]?
**A.** 5.00

**Q.** And the “% Cytotox” value (Vero E6 cells; 72 h)?
**A.** <30%

**Q.** With CN(C)CCC=C1c2ccccc2C(C)(C)c2ccccc21.Cl [Melitracen hydrochloride, reference compound] as the compound, how does the CPE % Efficacy [1, 4] read?
**A.** 97.1%

**Q.** What about the pEC50 [1] of the same compound?
**A.** 5.00

**Q.** And the “% Cytotox” value (Vero E6 cells; 72 h)?
**A.** <30%

**Q.** How did the pEC50 [1, 2] turn out when HBX 19818 was run?
**A.** 5.10

**Q.** And the “CPE % Efficacy” value [1, 3]?
**A.** 80.9%

**Q.** And the “% Cytotox” value (Vero E6 cells; cytotoxicity counter-assay)?
**A.** 39.1%

**Q.** C[C@H]1CC[C@@]2(OC1)O[C@H]1CC3[C@@H]4CC[C@@H]5C[C@@H](O[C@@H]6O[C@H](CO)[C@@H](O[C@@H]7O[C@H](CO[C@@H]8OC[C@@H](O)[C@H](O)[C@H]8O)[C@@H](O[C@@H]8O[C@H](CO)[C@H](O)[C@H](O)[C@H]8O)[C@H](O)[C@H]7O)[C@H](O)[C@H]6O)CC[C@]5(C)C4CC[C@]3(C)[C@H]1[C@@H]2C (stereo partly shown) [NCGC00385658] was tested. Which pEC50 [1, 2] did it give?
**A.** 5.52

**Q.** And the “CPE % Efficacy” value [1, 3]?
**A.** 68.4%

**Q.** And the “% Cytotox” value (Vero E6 cells; cytotoxicity counter-assay)?
**A.** 78.8%

**Q.** What about the CC50 (Vero E6 cells; cytotoxicity counter-assay) of the same compound?
**A.** 3.4 µM

**Q.** What does the source list for CC(=O)OC1[C@H]2[C@@H](C[C@@H](C)[C@@H]3C=CC(=O)[C@@]13C)OC(=O)[C@@H]2C (stereo partly shown) [NCGC00385908]?
**A.** pEC50 [1, 2]: 5.15; CPE % Efficacy [1, 3]: 67.1%; % Cytotox (Vero E6 cells; cytotoxicity counter-assay): 44.4%; CC50 (Vero E6 cells; cytotoxicity counter-assay): 11.2 µM

**Q.** With CC(=O)O[C@@H]1C[C@H]2C(C)(C)C(=O)C=C[C@]2(C)[C@H]2CC[C@]3(C)C(=CC(=O)O[C@H]3c3ccoc3)[C@@]21C [DEOXYGEDUNIN] as the compound, how does the pEC50 [1, 2] read?
**A.** 4.95

**Q.** And the “CPE % Efficacy” value [1, 3]?
**A.** 107.7%

**Q.** What about the “% Cytotox” value (Vero E6 cells; cytotoxicity counter-assay) of the same compound?
**A.** 0.0%
